Reference: patent publication US6476059B1, “Use of polycyclic 2-aminothiazole systems for the treatment of obesity” (Aventis Pharma Deutschland GmbH, priority 1999, dated 2002)

Experiments:
[1] = tested on: male NMRI mice; assay: Anorectic effect: cumulative condensed milk consumption after gavage; format: in vivo; settings: oral dose 50 mg/kg by gavage, feed withdrawn for 24 hours; for Reduction in the cumulative milk consumption as % of the controls: compared with untreated control animals; for cumulative milk consumption by the treated animals: condensed milk offered 30 minutes after administration, consumption determined every half hour for 7 hours
Protocol: The anorectic effect was tested on male NMRI mice. After withdrawal of feed for 24 hours, the test product was administered by gavage. The animals were housed singly and had free access to drinking water and, 30 minutes after administration of the product, they were offered condensed milk. The consumption of condensed milk was determined, and the general behavior of the animals was inspected, every half hour for 7 hours. The measured milk consumption was compared with that of untreated control animals.

melting point [°C] | Compound | Reduction in the cumulative milk consumption as % of the controls [1] [%] | cumulative milk consumption by the treated animals [1]
> 230 | CS(=O)(=O)c1ccc2c(c1)-c1nc(N)sc1C2.Cl | – | –
> 300 | Br.CN(C)c1nc2c(s1)Cc1cc(C#N)ccc1-2 [Example 2, 2-Dimethylamino-8H-indeno[1,2-d]thiazole-6-carbonitrile hydrobromide] | 85 | 5/0.76 ml
225 | N#CNc1nc2c(s1)Cc1cc(Cl)ccc1-2 [Example 4, 6-Chloro-8H-indeno[1,2-d]thiazol-2-yl-cyanamide] | – | –
295 | O=CNc1nc2c(s1)Cc1cc(Cl)ccc1-2 [Example 6, N-(6-chloro-8H-indeno[1,2-d]thiazol-2-yl)formamide] | 77 | 5/0.96 ml
210 | N=C(Nc1ccccc1)Nc1nc2c(s1)Cc1cc(Cl)ccc1-2 [Example 7, N-(6-Chloro-8H-indeno[1,2-d]thiazol-2-yl)-N′-phenylguanidine] | – | –
258 | CNc1nc2c(s1)Cc1cc(OCC(F)(F)C(F)(F)F)ccc1-2.Cl [Example 18, Methyl[6-(2,2,3,3,3-pentafluoropropoxy)-8H-indeno[1,2-d]thiazol-2-yl]amine hydrochloride] | 90 | 5/0.38 ml
225 | CNc1nc2c(s1)Cc1cc(-c3cccnc3)ccc1-2.Cl [Example 26, Methyl(6-pyridin-3-yl-8H-indeno[1,2-d]thiazol-2-yl)amine hydrochloride] | 77 | 5/0.68 ml
174 | Cc1cccc(Oc2ccc3c(c2)Cc2sc(N)nc2-3)c1.Cl [Example 27, 6-m-Tolyloxy-8H-indeno[1,2-d]thiazol-2-yl-amine hydrochloride] | 79 | 5/0.74 ml
